How the values were obtained:
wheat = assay: Test B postemergence herbicide test; format: in vivo, Triticum aestivum; set-up: key to Wheat plant response rating: 0 = no effect, 100 = complete control
Method in brief: (§1)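 Formulated test chemicals went onto postemergence plants measuring 2 to 18 cm, at one to four leaves. For the paddy assay, species had reached two leaves. Scoring took place 13–15 days later by eye, relative to untreated plants, using 0 for no effect up to 100 for full control.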

rice [1] = assay: Test B flooded paddy test; format: in vivo, Oryza sativa; conditions: 1000 g ai/ha, scale 0 to 100 (0 no effect, 100 complete control)
Method in brief: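 Visual ratings, 0 (no effect) to 100 (complete control), made versus controls after 13–15 d greenhouse. Paddy plants treated at 2-leaf stage; postemergence plants at 1- to 4-leaf stage, 2–18 cm tall.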

ducksalad [2] = assay: Test C flooded paddy test; format: in vivo, Heteranthera limosa
Surinam grass = assay: Test B pre-/postemergence herbicide test; format: in vivo, Urochloa decumbens; conditions: for Surinam Grass plant response rating: scale 0 (no effect) to 100 (complete control)
Method in brief: (§2)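 Seeds were planted and treated preemergence with compounds formulated in a non-phytotoxic solvent mixture containing surfactant, while plants at the 1- to 4-leaf stage (2 to 18 cm) received postemergence sprays. Flooded paddy plants were grown to the 2-leaf stage. After 13 to 15 days in a greenhouse, injury was visually rated 0–100 against untreated controls.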

giant foxtail = assay: Test B pre-/postemergence herbicide test; format: in vivo, Setaria faberi; conditions: for Foxtail, Giant plant response rating: scale 0 (no effect) to 100 (complete control)
Method in brief: as §2

blackgrass = assay: Test B postemergence herbicide test; format: in vivo, Alopecurus myosuroides; conditions: scale 0 (no effect) to 100 (complete control)
Method in brief: as §1

barnyardgrass [3] = assay: Test C flooded paddy test; format: in vivo, Echinochloa crus-galli
Method in brief: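 Greenhouse test with a 12–14 day hold after application and visual comparison with controls. Emerged plants were 1- to 4-leaf stage (2–18 cm) when sprayed postemergence, and the paddy barnyardgrass was at 2 leaves under flooded conditions. 100 = complete control.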

barnyardgrass [4] = assay: Test B pre-/postemergence herbicide test; format: in vivo, Echinochloa crus-galli; conditions: for Barnyardgrass plant response rating: scale 0 (no effect) to 100 (complete control)
Method in brief: (§3)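 Plants compared with untreated controls 13–15 days post-treatment and given a visual 0–100 injury score. Applications: preemergence to seeds; postemergence at 1- to 4-leaf (2–18 cm); paddy species flooded, 2-leaf stage. Vehicle non-phytotoxic, surfactant included.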

lambsquarters = assay: Test B pre-/postemergence herbicide test; format: in vivo, Chenopodium album; conditions: for Lambsquarters plant response rating: scale 0 (no effect) to 100 (complete control)
Method in brief: as §2

cocklebur = assay: Test B pre-/postemergence herbicide test; format: in vivo, Xanthium strumarium; conditions: for Cocklebur plant response rating: scale 0 (no effect) to 100 (complete control)
Method in brief: as §3

morningglory = assay: Test B pre-/postemergence herbicide test; format: in vivo, Ipomoea coccinea; conditions: for Morningglory plant response rating: scale 0 (no effect) to 100 (complete control)
Method in brief: as §3

barnyardgrass [5] = assay: Test B flooded paddy test; format: in vivo, Echinochloa crus-galli; conditions: 1000 g ai/ha, scale 0 to 100 (0 no effect, 100 complete control)
Method in brief: as §1

[6] = tested on: small flower umbrella sedge; assay: Test B flooded paddy test; format: in vivo, Cyperus difformis; conditions: 1000 g ai/ha, scale 0 to 100 (0 no effect, 100 complete control)
Method in brief: as §1

wild oat = assay: Test B postemergence herbicide test; format: in vivo, Avena fatua; conditions: scale 0 (no effect) to 100 (complete control)
Method in brief: as §1

[7] = tested on: smallflower umbrella sedge; assay: Test C flooded paddy test; format: in vivo, Cyperus difformis
large crabgrass = assay: Test B pre-/postemergence herbicide test; format: in vivo, Digitaria sanguinalis; conditions: for Crabgrass, Large plant response rating: scale 0 (no effect) to 100 (complete control)
Method in brief: as §2

corn = assay: Test B pre-/postemergence herbicide test; format: in vivo, Zea mays; conditions: for Corn plant response rating: scale 0 (no effect) to 100 (complete control)
Method in brief: as §2

ducksalad [8] = assay: Test B flooded paddy test; format: in vivo, Heteranthera limosa; conditions: 1000 g ai/ha, scale 0 to 100 (0 no effect, 100 complete control)
Method in brief: as §1

velvetleaf = assay: Test B pre-/postemergence herbicide test; format: in vivo, Abutilon theophrasti; conditions: for Velvetleaf plant response rating: scale 0 (no effect) to 100 (complete control)
Method in brief: as §2

pigweed = assay: Test B pre-/postemergence herbicide test; format: in vivo, Amaranthus retroflexus; conditions: for Pigweed plant response rating: scale 0 (no effect) to 100 (complete control)
Method in brief: as §2

rice [9] = assay: Test C flooded paddy test; format: in vivo, Oryza sativa
Method in brief: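 Injury scored visually against controls on a 0 (no effect) to 100 (complete control) scale, 12 to 14 days after treatment in greenhouse. Flooded paddy plants treated at 2-leaf stage; postemergence plants at 1- to 4-leaf stage, 2 to 18 cm tall.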

[10] = 125 g ai/ha, scale 0 to 100 (0 no effect, 100 complete control)
[11] = 250 g ai/ha, scale of 0 to 100, 0 is no effect, 100 is complete control
[12] = 500 g ai/ha, visual rating after 12 to 14 days, scale 0 to 100 (0 no effect, 100 complete control)
[13] = 125 g ai/ha, 0 is no effect, 100 is complete control, preemergence
[14] = 125 g ai/ha, visual rating, postemergence

For `Cc1nn(C(C)C)nc1C(=O)Nc1cccc(C(=O)N(C)C)c1` [Compound 404], the “Wheat plant response rating” value (wheat; 125 g ai/ha, visual rating, scale 0 (no effect) to 100 (complete control), postemergence) was 0, the “Wheat plant response rating” value (wheat; 500 g ai/ha, scale 0 to 100, 0 no effect, 100 complete control, preemergence) was 100 and the “Wheat plant response rating” value (wheat; Postemergence, 500 g ai/ha, scale 0 (no effect) to 100 (complete control)) was 0. For the same molecule, the “Rice plant response rating” value (rice [1]) was 60, the “Ducksalad plant response rating” value (ducksalad [2]; 62 g ai/ha, scale 0 to 100) was 10 and the “Ducksalad plant response rating” value (ducksalad [2]; [10]) was 10. The “Ducksalad plant response rating” value (ducksalad [2]; [11]) was 20, the “Plant response rating, Ducksalad” value (ducksalad [2]; [12]) was 30 and the “Plant response rating (0 to 100 scale), Surinam Grass” value (Surinam grass; [13]) was 40. For the same molecule, the “Surinam Grass plant response rating” value (Surinam grass; [14]) was 0, the “Surinam Grass plant response rating” value (Surinam grass; Postemergence, 500 g ai/ha) was 10 and the “Plant response rating (0 to 100 scale), Foxtail, Giant” value (giant foxtail; [13]) was 30. The “Foxtail, Giant plant response rating” value (giant foxtail; [14]) was 10, the “Foxtail, Giant plant response rating” value (giant foxtail; Postemergence, 500 g ai/ha) was 40 and the “Blackgrass plant response rating” value (blackgrass; [14]) was 10. The “Blackgrass plant response rating” value (blackgrass; Postemergence, 500 g ai/ha) was 30, the “Barnyardgrass plant response rating” value (barnyardgrass [3]; 62 g ai/ha, scale 0 to 100 (0 no effect, 100 complete control)) was 0 and the “Barnyardgrass plant response rating” value (barnyardgrass [3]; [10]) was 0. For the same molecule, the “Barnyardgrass plant response rating” value (barnyardgrass [3]; [11]) was 20, the “Plant response rating, Barnyardgrass” value (barnyardgrass [3]; [12]) was 30 and the “Plant response rating (0 to 100 scale), Barnyardgrass” value (barnyardgrass [4]; [13]) was 70. The “Barnyardgrass plant response rating” value (barnyardgrass [4]; [14]) was 10, the “Barnyardgrass plant response rating” value (barnyardgrass [4]; Postemergence, 500 g ai/ha) was 10 and the “Plant response rating (0 to 100 scale), Lambsquarters” value (lambsquarters; [13]) was 90. For the same molecule, the “Lambsquarters plant response rating” value (lambsquarters; [14]) was 60, the “Lambsquarters plant response rating” value (lambsquarters; Postemergence, 500 g ai/ha) was 80 and the “Plant response rating (0 to 100 scale), Cocklebur” value (cocklebur; [13]) was 40. For the same molecule, the “Cocklebur plant response rating” value (cocklebur; [14]) was 10, the “Cocklebur plant response rating” value (cocklebur; Postemergence, 500 g ai/ha) was 30 and the “Plant response rating (0 to 100 scale), Morningglory” value (morningglory; [13]) was 60. For the same molecule, the “Morningglory plant response rating” value (morningglory; [14]) was 20, the “Morningglory plant response rating” value (morningglory; Postemergence, 500 g ai/ha) was 70 and the “Barnyardgrass plant response rating” value (barnyardgrass [5]) was 90. For the same molecule, the “Sedge, Umbrella plant response rating” value [6] was 90, the “Oat, Wild plant response rating” value (wild oat; [14]) was 0 and the “Oat, Wild plant response rating” value (wild oat; Postemergence, 500 g ai/ha) was 10. For the same molecule, the “Sedge, Umbrella plant response rating” value ([7]; 62 g ai/ha, scale 0 to 100) was 70, the “Sedge, Umbrella plant response rating” value [7, 10] was 75 and the “Sedge, Umbrella plant response rating” value [7, 11] was 80. For the same molecule, the “Plant response rating, Sedge, Umbrella” value [7, 12] was 85, the “Plant response rating (0 to 100 scale), Crabgrass, Large” value (large crabgrass; [13]) was 70 and the “Crabgrass, Large plant response rating” value (large crabgrass; [14]) was 0. The “Crabgrass, Large plant response rating” value (large crabgrass; Postemergence, 500 g ai/ha) was 10, the “Plant response rating (0 to 100 scale), Corn” value (corn; [13]) was 0 and the “Corn plant response rating” value (corn; [14]) was 0. For the same molecule, the “Corn plant response rating” value (corn; Postemergence, 500 g ai/ha) was 10, the “Ducksalad plant response rating” value (ducksalad [8]) was 90 and the “Plant response rating (0 to 100 scale), Velvetleaf” value (velvetleaf; [13]) was 20. The “Velvetleaf plant response rating” value (velvetleaf; [14]) was 30, the “Velvetleaf plant response rating” value (velvetleaf; Postemergence, 500 g ai/ha) was 30 and the “Plant response rating (0 to 100 scale), Pigweed” value (pigweed; [13]) was 70. For the same molecule, the “Pigweed plant response rating” value (pigweed; [14]) was 10, the “Pigweed plant response rating” value (pigweed; Postemergence, 500 g ai/ha) was 30 and the “Rice plant response rating” value (rice [9]; 62 g ai/ha, scale 0 to 100) was 0. The “Rice plant response rating” value (rice [9]; [10]) was 0, the “Rice plant response rating” value (rice [9]; [11]) was 45 and the “Plant response rating, Rice” value (rice [9]; [12]) was 50.

Reference: patent US20060069132A1, “Azolecarboxamide herbicides” (priority 2004, published 2006)
